Results published in patent US11021493B2, “1,4-thiazine dioxide and 1,2,4-thiadiazine dioxide derivatives as beta-secretase inhibitors and methods of use” (AMGEN INC., priority 2016, dated 2021).

What was measured:
BACE1 [1] = target: T1, BACE1 (Homo sapiens (Human), UniProt P56817); assay: In vitro enzymatic BACE1 FRET assay; assay type: biochemical; settings: read-out: BACE1 Enzyme IC50
Target sequence in this assay (P56817 46-501): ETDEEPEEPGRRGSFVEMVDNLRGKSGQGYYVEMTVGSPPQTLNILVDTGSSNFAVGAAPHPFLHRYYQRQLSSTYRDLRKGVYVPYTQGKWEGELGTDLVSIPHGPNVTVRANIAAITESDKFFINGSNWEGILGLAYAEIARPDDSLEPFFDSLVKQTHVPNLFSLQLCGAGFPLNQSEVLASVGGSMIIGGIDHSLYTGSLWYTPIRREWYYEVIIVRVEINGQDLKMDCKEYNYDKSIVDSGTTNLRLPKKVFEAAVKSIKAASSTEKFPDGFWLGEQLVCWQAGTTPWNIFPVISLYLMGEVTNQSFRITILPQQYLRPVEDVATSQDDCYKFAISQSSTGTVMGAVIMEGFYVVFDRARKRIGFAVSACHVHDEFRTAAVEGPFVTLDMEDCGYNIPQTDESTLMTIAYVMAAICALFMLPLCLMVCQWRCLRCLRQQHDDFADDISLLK

BACE1 [2] = target: T1, BACE1; assay: In vitro BACE1 cell-based assay (Aβ40 in conditioned medium of cells stably expressing APP, HTRF); settings: Aβ40 in conditioned media after 24 h incubation
Target sequence in this assay (P56817 46-501, species assumed): as the sequence (P56817 46-501) above

human recombinant BACE2 = human recombinant BACE2 (Homo sapiens (Human), UniProt Q9Y5Z0); assay: In vitro enzymatic BACE2 FRET assay; assay type: biochemical; settings: read-out: BACE2 Enzyme IC50
Chain of human recombinant BACE2 (Q9Y5Z0 63-518): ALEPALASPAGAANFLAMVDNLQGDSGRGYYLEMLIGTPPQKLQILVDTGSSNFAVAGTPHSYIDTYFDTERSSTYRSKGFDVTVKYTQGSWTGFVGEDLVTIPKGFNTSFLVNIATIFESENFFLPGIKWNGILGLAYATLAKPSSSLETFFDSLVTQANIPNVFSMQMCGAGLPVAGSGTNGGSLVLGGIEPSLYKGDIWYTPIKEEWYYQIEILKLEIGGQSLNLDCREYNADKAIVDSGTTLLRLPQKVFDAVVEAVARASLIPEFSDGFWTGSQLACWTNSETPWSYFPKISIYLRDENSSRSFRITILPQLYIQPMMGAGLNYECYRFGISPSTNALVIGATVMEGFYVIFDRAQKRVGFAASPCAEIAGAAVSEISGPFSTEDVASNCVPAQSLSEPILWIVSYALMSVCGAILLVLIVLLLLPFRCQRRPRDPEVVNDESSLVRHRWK

Cathepsin D (CatD) = Cathepsin D (CatD) (Homo sapiens (Human), UniProt P07339); assay: In vitro enzymatic Cathepsin D (CatD) FRET assay; assay type: biochemical; settings: read-out: Cat D Enzyme IC50
Chain of Cathepsin D (CatD) (P07339 65-412, species assumed): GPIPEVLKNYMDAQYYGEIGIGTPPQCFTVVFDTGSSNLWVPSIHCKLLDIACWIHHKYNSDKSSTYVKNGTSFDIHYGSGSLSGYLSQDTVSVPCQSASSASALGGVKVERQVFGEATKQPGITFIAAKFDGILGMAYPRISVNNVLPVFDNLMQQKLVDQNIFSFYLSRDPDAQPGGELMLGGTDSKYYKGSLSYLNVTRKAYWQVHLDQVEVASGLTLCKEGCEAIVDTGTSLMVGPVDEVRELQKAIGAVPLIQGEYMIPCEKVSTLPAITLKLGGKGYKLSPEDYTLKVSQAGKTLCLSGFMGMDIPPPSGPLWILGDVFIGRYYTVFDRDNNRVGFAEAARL

Row | IC50 (BACE1 [1]) | IC50 (BACE1 [2]) | IC50 (human recombinant BACE2) | IC50 (Cathepsin D (CatD)) | Compound
1 | 7 nM | 13 nM | 46 nM | 76200 nM | CN1C(N)=N[C@](C)(c2cc(/C=C(\F)c3ccc(C(F)(F)F)cn3)cc(F)c2F)CS1(=O)=O [Example 273, (R,Z)-3-amino-5-(2,3-difluoro-5-(2-fluoro-2-(5-(trifluoromethyl)pyridin-2-yl)vinyl)phenyl)-2,5-dimethyl-5,6-dihydro-2H-1,2,4-thiadiazine 1,1-dioxide]
2 | 80 nM | 48 nM | 2630 nM | 59600 nM | Cc1noc(COc2cnc(/C(F)=C/c3ccc(F)c([C@@]4(C)N=C(N)N(C)S(=O)(=O)C45CC5)c3)cn2)n1 [Example 161, (8R)-8-(2-fluoro-5-((Z)-2-fluoro-2-(5-((3-methyl-1,2,4-oxadiazol-5-yl)methoxy)-2-pyrazinyl)ethenyl)phenyl)-5,8-dimethyl-4-thia-5,7-diazaspiro[2.5]oct-6-en-6-amine 4,4-dioxide]
3 | 2 nM | 17 nM | 6 nM | 58000 nM | CN1C(N)=N[C@](C)(c2cc(/C=C(\F)c3ncc(C#N)cc3Cl)cc(F)c2F)CS1(=O)=O [Example 276, (R,Z)-6-(2-(3-(3-amino-2,5-dimethyl-1,1-dioxido-5,6-dihydro-2H-1,2,4-thiadiazin-5-yl)-4,5-difluorophenyl)-1-fluorovinyl)-5-chloronicotinonitrile]
4 | 66 nM | 124 nM | 907 nM | 698000 nM | Cc1cnc(COc2cnc(/C(F)=C/c3ccc(F)c([C@@]4(C)N=C(N)N(C)S(=O)(=O)C45CC5)c3)cn2)o1 [Example 169, (8R)-8-(2-fluoro-5-((Z)-2-fluoro-2-(5-((5-methyl-1,3-oxazol-2-yl)methoxy)-2-pyrazinyl)ethenyl)phenyl)-5,8-dimethyl-4-thia-5,7-diazaspiro[2.5]oct-6-en-6-amine 4,4-dioxide]
5 | 7 nM | 26 nM | 75 nM | 93700 nM | CN1C(N)=N[C@](C)(c2cc(/C=C(\F)c3ccc(C#N)cn3)ccc2F)C(C)(C)S1(=O)=O [Example 180, (R,Z)-6-(2-(3-(3-amino-2,5,6,6-tetramethyl-1,1-dioxido-5,6-dihydro-2H-1,2,4-thiadiazin-5-yl)-4-fluorophenyl)-1-fluorovinyl)nicotinonitrile]
6 | 44 nM | 380 nM | 222 nM | 30500 nM | CN1C(N)=N[C@](C)(c2cc(/C=C(\F)c3cnc(OCC4CC4)cn3)ccc2F)CS1(=O)=O [Example 143, (R,Z)-3-amino-5-(5-(2-(5-(cyclopropylmethoxy)pyrazin-2-yl)-2-fluorovinyl)-2-fluorophenyl)-2,5-dimethyl-5,6-dihydro-2H-1,2,4-thiadiazine 1,1-dioxide]
7 | 5140 nM | 985 nM | 2390 nM | 440000 nM | CC1(C)C(N)=N[C@](C)(c2cc(/C=C(\F)c3cnc(OCCn4ccnc4)cn3)ccc2F)CS1(=O)=O [Example 155, (R,Z)-3-(5-(2-(5-(2-(1H-imidazol-1-yl)ethoxy)pyrazin-2-yl)-2-fluorovinyl)-2-fluorophenyl)-5-amino-3,6,6-trimethyl-3,6-dihydro-2H-1,4-thiazine 1,1-dioxide]
8 | 65 nM | 168 nM | 732 nM | 15700 nM | Cc1cc(COc2cnc(/C(F)=C/c3ccc(F)c([C@@]4(C)N=C(N)N(C)S(=O)(=O)C45CC5)c3)cn2)no1 [Example 162, (8R)-8-(2-fluoro-5-((Z)-2-fluoro-2-(5-((5-methyl-3-isoxazolyl)methoxy)-2-pyrazinyl)ethenyl)phenyl)-5,8-dimethyl-4-thia-5,7-diazaspiro[2.5]oct-6-en-6-amine 4,4-dioxide]
9 | 628 nM | 5360 nM | 364 nM | 29900 nM | CCC#C[C@@H](C)Oc1cnc(/C(F)=C/c2ccc(F)c([C@]3(C)CS(=O)(=O)C(C)(C)C(N)=N3)c2)cn1 (single isomer, unassigned) [Example 216]
10 | 37 nM | 542 nM | 258 nM | > 400000 nM | C[C@]1(c2cc(/C=C(\F)c3cnc(OCC(F)(F)C(F)F)cn3)ccc2F)N=C(N)[C@@]2(CF)CC[C@@H]1S2(=O)=O [Example 120, (1R,4R,5S)-2-amino-4-(2-fluoro-5-((Z)-2-fluoro-2-(5-(2,2,3,3-tetrafluoropropoxy)pyrazin-2-yl)vinyl)phenyl)-1-(fluoromethyl)-4-methyl-8-thia-3-azabicyclo[3.2.1]oct-2-ene 8,8-dioxide]
11 | 272 nM | 1120 nM | 41 nM | 116000 nM | CN1C(N)=N[C@](C)(c2cc(/C=C(\F)c3cc4ccccc4cn3)ccc2F)CS1(=O)=O [Example 259, (5R)-5-(2-fluoro-5-((Z)-2-fluoro-2-(3-isoquinolinyl)ethenyl)phenyl)-2,5-dimethyl-5,6-dihydro-2H-1,2,4-thiadiazin-3-amine 1,1-dioxide]
12 | 5 nM | 17 nM | 32 nM | > 133000 nM | C[C@]1(c2cc(/C=C(\F)c3ccc(C#N)cn3)ccc2F)N=C(N)C2(CF)CC[C@@H]1S2(=O)=O (stereo in doubt) [Example 102, 6-((Z)-2-(3-((1S,2R,5R)-4-amino-5-(fluoromethyl)-2-methyl-8,8-dioxido-8-thia-3-azabicyclo[3.2.1]oct-3-en-2-yl)-4-fluorophenyl)-1-fluorovinyl)nicotinonitrile]
13 | 12 nM | 23 nM | 9 nM | 35800 nM | CN1C(N)=N[C@](C)(c2cc(/C=C(\F)c3ccc(Br)cn3)cc(F)c2F)CS1(=O)=O [Example 105, (R,Z)-3-amino-5-(5-(2-(5-bromopyridin-2-yl)-2-fluorovinyl)-2,3-difluorophenyl)-2,5-dimethyl-5,6-dihydro-2H-1,2,4-thiadiazine 1,1-dioxide]
14 | 34 nM | 67 nM | 8 nM | 375000 nM | CN1C(N)=N[C@](C)(c2cc(/C=C(\F)c3ccc(F)cn3)ccc2F)CS1(=O)=O [Example 240, (5R)-5-(2-fluoro-5-((Z)-2-fluoro-2-(5-fluoro-2-pyridinyl)ethenyl)phenyl)-2,5-dimethyl-5,6-dihydro-2H-1,2,4-thiadiazin-3-amine 1,1-dioxide]
15 | 1 nM | 5 nM | 107 nM | 79500 nM | CC#C[C@H](C)Oc1cnc(/C(F)=C/c2ccc(F)c([C@]3(C)CS(=O)(=O)C(C)(C)C(N)=N3)c2)cn1 (single isomer, unassigned) [Example 208]
16 | 25 nM | 23 nM | 84 nM | 67600 nM | COC(C)COc1cnc(/C(F)=C/c2ccc(F)c([C@]3(C)CS(=O)(=O)N(C)C(N)=N3)c2)cn1 (stereo partly drawn) [Example 172, (R)-3-amino-5-(2-fluoro-5-((Z)-2-fluoro-2-(5-(2-methoxypropoxy)pyrazin-2-yl)vinyl)phenyl)-2,5-dimethyl-5,6-dihydro-2H-1,2,4-thiadiazine 1,1-dioxide]
17 | 240 nM | 1420 nM | 121 nM | 40900 nM | CN1C(N)=N[C@](C)(c2cc(/C=C(/F)c3ccc(Cl)cn3)cc(F)c2F)CS1(=O)=O [Example 151, (R,E)-3-amino-5-(5-(2-(5-chloropyridin-2-yl)-2-fluorovinyl)-2,3-difluorophenyl)-2,5-dimethyl-5,6-dihydro-2H-1,2,4-thiadiazine 1,1-dioxide]
18 | 46 nM | 1620 nM | 155 nM | 13800 nM | CC1(C)C(N)=N[C@](C)(c2cc(/C=C(\F)c3cnc(OCC4CCCCC4)cn3)ccc2F)CS1(=O)=O [Example 150, (R,Z)-5-amino-3-(5-(2-(5-(cyclohexylmethoxy)pyrazin-2-yl)-2-fluorovinyl)-2-fluorophenyl)-3,6,6-trimethyl-3,6-dihydro-2H-1,4-thiazine 1,1-dioxide]
19 | 1 nM | 2 nM | 31 nM | 182000 nM | CN1C(N)=N[C@](C)(c2cc(/C=C(\F)c3ccc(C#N)cn3)ccc2F)CS1(=O)=O [Example 106, (R,Z)-6-(2-(3-(3-amino-2,5-dimethyl-1,1-dioxido-5,6-dihydro-2H-1,2,4-thiadiazin-5-yl)-4-fluorophenyl)-1-fluorovinyl)nicotinonitrile]
20 | 4 nM | 2 nM | 102 nM | 51200 nM | CC#C[C@H](CC)Oc1cnc(/C(F)=C/c2ccc(F)c([C@]3(C)CS(=O)(=O)C(C)(C)C(N)=N3)c2)cn1 (single isomer, unassigned) [Example 199]
21 | 38 nM | 1960 nM | 217 nM | > 400000 nM | C[C@]1(c2cc(/C=C(\F)c3cnc(OCC4CCC4)cn3)ccc2F)N=C(N)[C@@]2(CF)CC[C@@H]1S2(=O)=O [Example 132, (1R,4R,5S)-2-amino-4-(5-((Z)-2-(5-(cyclobutylmethoxy)pyrazin-2-yl)-2-fluorovinyl)-2-fluorophenyl)-1-(fluoromethyl)-4-methyl-8-thia-3-azabicyclo[3.2.1]oct-2-ene 8,8-dioxide]
22 | 1 nM | 2 nM | 34 nM | 109000 nM | CC#CCOc1cnc(/C(F)=C/c2ccc(F)c([C@]3(C)CS(=O)(=O)C(C)(C)C(N)=N3)c2)cn1 [Example 154, (R,Z)-5-amino-3-(5-(2-(5-(but-2-yn-1-yloxy)pyrazin-2-yl)-2-fluorovinyl)-2-fluorophenyl)-3,6,6-trimethyl-3,6-dihydro-2H-1,4-thiazine 1,1-dioxide]

Row | Compound | IC50 (BACE1 [1]) | IC50 (BACE1 [2]) | IC50 (human recombinant BACE2) | IC50 (Cathepsin D (CatD))
23 | CC1(C)C(N)=N[C@](C)(c2cc(/C=C(\F)c3ccc(Cl)cn3)ccc2F)CS1(=O)=O [Example 114, (R,Z)-5-amino-3-(5-(2-(5-chloropyridin-2-yl)-2-fluorovinyl)-2-fluorophenyl)-3,6,6-trimethyl-3,6-dihydro-2H-1,4-thiazine 1,1-dioxide] | 9 nM | 80 nM | 3 nM | 115000 nM
